Test system: CRBPII
Experiment: RAW 264.7 Q-PCR: CRBPII
Type: cell-based, murine
Details: RXRα overexpressing RAW 264.7 cells; FIG. 10d

polyinosinic:polycytidylic acid [polyI:C]
LG268 induced CRBPII: unable to repress LG268 induced CRBPII
